The results in this text go back to ChEMBL document CHEMBL1131172 (J Med Chem, 1998).

The target in experiment [1] is T1, Dihydrofolate reductase (Rattus norvegicus, UniProt Q920D2).
T1 sequence (Q920D2 whole entry): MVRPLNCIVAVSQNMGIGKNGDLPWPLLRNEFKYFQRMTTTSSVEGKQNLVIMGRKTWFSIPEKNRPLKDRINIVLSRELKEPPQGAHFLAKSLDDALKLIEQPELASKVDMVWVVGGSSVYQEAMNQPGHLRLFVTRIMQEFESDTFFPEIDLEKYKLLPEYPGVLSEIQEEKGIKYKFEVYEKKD
Description: Inhibitory activity against dihydrofolate reductase (DHFR) from rat liver

The target of experiment [2] is T2, Dihydrofolate reductase (Pneumocystis carinii, UniProt P16184).
T2 sequence (P16184 whole entry): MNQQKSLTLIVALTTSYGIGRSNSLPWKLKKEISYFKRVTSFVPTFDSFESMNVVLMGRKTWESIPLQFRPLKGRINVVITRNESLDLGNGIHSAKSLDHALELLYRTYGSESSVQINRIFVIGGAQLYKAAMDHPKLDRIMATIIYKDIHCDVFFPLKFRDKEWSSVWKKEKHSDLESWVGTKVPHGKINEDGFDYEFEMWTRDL
Description: Inhibitory activity against dihydrofolate reductase (DHFR) from Pneumocystis carinii

The target of experiment [3] is T3, Bifunctional dihydrofolate reductase-thymidylate synthase (Toxoplasma gondii, UniProt Q07422).
T3 sequence (Q07422 whole entry): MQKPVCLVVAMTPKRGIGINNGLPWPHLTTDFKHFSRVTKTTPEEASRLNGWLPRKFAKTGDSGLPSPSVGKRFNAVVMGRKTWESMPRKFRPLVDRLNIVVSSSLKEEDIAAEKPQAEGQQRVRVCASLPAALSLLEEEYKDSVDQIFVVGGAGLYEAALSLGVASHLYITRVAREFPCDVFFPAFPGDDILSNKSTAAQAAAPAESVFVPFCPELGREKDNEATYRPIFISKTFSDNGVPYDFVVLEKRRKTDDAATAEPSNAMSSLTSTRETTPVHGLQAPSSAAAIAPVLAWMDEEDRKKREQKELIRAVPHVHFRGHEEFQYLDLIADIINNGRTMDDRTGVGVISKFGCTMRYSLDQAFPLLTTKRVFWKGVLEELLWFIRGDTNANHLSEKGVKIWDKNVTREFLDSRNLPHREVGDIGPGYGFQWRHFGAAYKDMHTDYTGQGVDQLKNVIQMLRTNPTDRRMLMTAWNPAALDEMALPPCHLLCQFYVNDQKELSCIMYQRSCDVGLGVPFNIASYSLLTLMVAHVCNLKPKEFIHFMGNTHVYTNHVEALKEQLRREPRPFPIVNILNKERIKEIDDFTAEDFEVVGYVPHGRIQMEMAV
Description: Inhibitory activity against dihydrofolate reductase (DHFR) from Toxoplasma gondii

The subject of another experiment is HCT-15. The experiment is described as follows: inhibition of the growth of colon cancer(HCT-15) cell line. The settings on record: Homo sapiens. It is filed as functional.
The next experiment relates to NCI-H23. The experiment can be described thus: inhibition of the growth of non-small-cell lung cancer (NCI-H23) cell line. The conditions noted are these: Homo sapiens. It is filed as functional.
Experiment [4] relates to UO-31. The experiment is described as follows: Inhibition of the growth of renal cancer(UO-31) cell line at 0.01 uM. It is filed as functional. The settings on record: Homo sapiens.
Experiment [5] has as its system UO-31. The experiment is described as follows: inhibition of the growth of renal cancer(UO-31) cell line. Format: functional. The settings on record: Homo sapiens.
Another experiment concerns M14. The experiment can be described thus: inhibition of the growth of melanoma cancer (M14) cell line. Format: functional. The settings on record: Homo sapiens.
The test system of a further experiment is NCI-H522. The experiment is described as follows: inhibition of the growth of non-small-cell lung cancer (NCI-H522) cell line. It is filed as functional. The conditions noted are these: Homo sapiens.
A further experiment relates to A549. The experiment is described as follows: inhibition of the growth of non-small-cell lung cancer (A549/ATCC) cell line. The settings on record: Homo sapiens. Format: functional.
For the next experiment, the system named is SNB-19. The experiment is described as follows: inhibition of the growth of CNS cancer(SNB-19) cell line. It is filed as functional. The settings on record: Homo sapiens.
The subject of a further experiment is OVCAR-8. The experiment is described as follows: inhibition of the growth of ovarian cancer(OVCAR-8) cell line. It is filed as functional. The conditions noted are these: Homo sapiens.
The next experiment deals with HCT-116. The experiment can be described thus: inhibition of the growth of colon cancer(HCT116) cell line. It is filed as functional. The settings on record: Homo sapiens.
A further experiment deals with RPMI-8226. The experiment is described as follows: inhibition of the growth of leukemia (RPMI-8226) cell line. Format: functional. The conditions noted are these: Homo sapiens.
The next experiment relates to MDA-N. The experiment can be described thus: inhibition of the growth of breast cancer(MDA-N) cell line. It is filed as functional. The conditions noted are these: Homo sapiens.
The test system of a further experiment is SF-295. The experiment is described as follows: inhibition of the growth of CNS cancer(SF-295) cell line. Format: functional. The conditions noted are these: Homo sapiens.
For a further experiment, the system named is MCF7. The experiment can be described thus: inhibition of the growth of breast cancer (MCF-7) cell line. The settings on record: Homo sapiens. Format: functional.
In the next experiment the test system is CAKI-1. The experiment is described as follows: inhibition of the growth of renal cancer(CAKI-1) cell line. It is filed as functional. The settings on record: Homo sapiens.
The test system of a further experiment is NCI-H460. The experiment is described as follows: inhibition of the growth of non-small-cell lung cancer (NCI-H460) cell line. The settings on record: Homo sapiens. Format: functional.
The next experiment concerns SR. The experiment is described as follows: inhibition of the growth of leukemia(SR) cell line. Format: functional. The conditions noted are these: Homo sapiens.
The next experiment has as its system SF-539. The experiment is described as follows: inhibition of the growth of CNS cancer(SF-539) cell line. Format: functional. The conditions noted are these: Homo sapiens.
In a further experiment the test system is MDA-MB-435. The experiment is described as follows: inhibition of the growth of breast cancer (MDA-MB-435) cell line. Format: functional. The conditions noted are these: Homo sapiens.
The subject of another experiment is SF-268. The experiment can be described thus: inhibition of the growth of CNS cancer(SF-268) cell line. The settings on record: Homo sapiens. Format: functional.
For a further experiment, the system named is NCI/ADR-RES. The experiment can be described thus: inhibition of the growth of breast cancer (MCF7/ADR-RES) cell line. The settings on record: Homo sapiens. Format: functional.
A further experiment has as its system IGROV-1. The experiment can be described thus: inhibition of the growth of ovarian cancer(IGROVI) cell line. It is filed as functional. The settings on record: Homo sapiens.
Another experiment concerns KM12. The experiment can be described thus: inhibition of the growth of colon cancer(KM-12) cell line. Format: functional. The conditions noted are these: Homo sapiens.
A further experiment deals with DU-145. The experiment is described as follows: inhibition of the growth of prostate cancer(DU-145) cell line. The settings on record: Homo sapiens. It is filed as functional.
The next experiment deals with SK-MEL-5. The experiment is described as follows: inhibition of the growth of melanoma cancer (SK-MEL-5) cell line. Format: functional. The conditions noted are these: Homo sapiens.
In the next experiment the test system is MOLT-4. The experiment can be described thus: inhibition of the growth of leukemia (MOLT-4) cell line. It is filed as functional. The settings on record: Homo sapiens.
The test system of the next experiment is 786-0. The experiment can be described thus: inhibition of the growth of renal cancer(786-0) cell line. The conditions noted are these: Homo sapiens. Format: functional.
The subject of a further experiment is NCI-H322M. The experiment is described as follows: inhibition of the growth of non-small-cell lung cancer (NCI-H322M) cell line. The settings on record: Homo sapiens. It is filed as functional.

Each structure is given as a SMILES string. Bounds are passed on as bounds.

On to `COc1ccc(Sc2ccc3nc(N)nc(N)c3n2)cc1`, for which the IC50 (commonly the concentration that inhibits the measured activity by half) against Dihydrofolate reductase [1] was found to be 75 nM; at Dihydrofolate reductase [2], 0.7 µM; in experiment [3], 45 nM.

With `COc1ccc(Sc2ccc3nc(N)nc(N)c3n2)cc1OC`, the IC50 against Dihydrofolate reductase [1] turned out to be 18 nM; against Dihydrofolate reductase [2], 0.086 µM; in experiment [3], 19 nM.

`Nc1nc(N)c2nc(Nc3ccc(Cl)cc3)ccc2n1`: the values for the half-maximal inhibitory concentration (IC50) (against Dihydrofolate reductase [1]; in experiment [3]) were 820 nM and 830 nM, respectively.

`Nc1nc(N)c2nc(Nc3ccc4ccccc4c3)ccc2n1`: the IC50 at Dihydrofolate reductase [1] amounted to 2000 nM; on Dihydrofolate reductase [2] it was 15 µM; in [3] it was 1100 nM.

As for `COc1cc(Nc2ccc3nc(N)nc(N)c3n2)cc(OC)c1OC`, the IC50 at Dihydrofolate reductase [1] is 3200 nM; against Dihydrofolate reductase [2], 25.9 µM; in experiment [3] it was 2400 nM.

Turning to `Nc1nc(N)c2nc(Nc3ccccc3)ccc2n1`, the concentration for 50% growth inhibition (GI50) (commonly the concentration that inhibits growth by half) in the experiment with HCT-15 is 850 nM; with NCI-H23, 3.67 µM; in the experiment with UO-31 [5], < 10 nM; with M14, 1070 nM; in the experiment on NCI-H522 it was 4.26 µM; with A549 it was 640 nM. Besides, the GI50 stood at 1570 nM with SNB-19; 990 nM in the experiment with OVCAR-8; 510 nM with HCT-116; 670 nM in the experiment on RPMI-8226; 680 nM in the experiment with MDA-N; 1430 nM with SF-295. The GI50 in the experiment with MCF7 is 6.45 µM; with CAKI-1, 3.58 µM; in the experiment on NCI-H460, 430 nM; with SR, 2910 nM; in the experiment with SF-539 it was 2950 nM; in the experiment with MDA-MB-435, 570 nM. In addition, the GI50 with SF-268 was 6.05 µM; in the experiment on NCI/ADR-RES, 2690 nM; in the experiment with IGROV-1, 3.27 µM; in the experiment on KM12, 5.94 µM; in the experiment on DU-145, 4.99 µM; with SK-MEL-5 it was 830 nM. Further, the GI50 in the experiment with MOLT-4 was 2180 nM; with 786-0 it was 890 nM; with NCI-H322M, 8.02 µM. The inhibition (commonly the relative decrease from the control value, in per cent) at 0.01 µM in the experiment on UO-31 [4] came to 57%. The figures for the IC50 (at Dihydrofolate reductase [1]; against Dihydrofolate reductase [2]; in [3]) were 430 nM, 8.3 µM and 300 nM, respectively.

In the case of `COc1ccc(S(=O)(=O)c2ccc3nc(N)nc(N)c3n2)cc1OC`, the IC50 was found to be 880 nM against Dihydrofolate reductase [1], 2.7 µM against Dihydrofolate reductase [2] and 940 nM in experiment [3].

Regarding `COc1ccccc1Nc1ccc2nc(N)nc(N)c2n1`, the IC50 was 260 nM against Dihydrofolate reductase [1] and 460 nM in experiment [3].
